In ChEMBL document CHEMBL2176887, “Chemokine receptor antagonists” (J Med Chem, 2012):
Each block holds one compound with its values, some of them ahead of it.

What was measured:
[1] = target: T1, C-C chemokine receptor type 4 (Homo sapiens, UniProt P51679); assay: Binding affinity to CCR4
T1 sequence (P51679 whole entry): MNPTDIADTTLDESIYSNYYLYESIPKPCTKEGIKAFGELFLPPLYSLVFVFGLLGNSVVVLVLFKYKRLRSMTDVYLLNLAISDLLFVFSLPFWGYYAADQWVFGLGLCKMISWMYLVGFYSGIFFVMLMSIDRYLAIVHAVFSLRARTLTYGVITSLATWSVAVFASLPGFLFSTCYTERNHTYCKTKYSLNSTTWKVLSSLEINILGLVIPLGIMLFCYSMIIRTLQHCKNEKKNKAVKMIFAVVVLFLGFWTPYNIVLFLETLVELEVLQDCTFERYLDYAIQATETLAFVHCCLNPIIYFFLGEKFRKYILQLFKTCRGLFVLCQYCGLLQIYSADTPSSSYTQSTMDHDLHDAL

[2] = Oral bioavailability in beagle dog; assay type: ADME, organism-based, Canis lupus familiaris; conditions: in vivo
[3] = Half life in rat; assay type: ADME, organism-based; conditions: in vivo
[4] = Half life in beagle dog; assay type: ADME, organism-based, Canis lupus familiaris; conditions: in vivo
[5] = Oral bioavailability in rat; assay type: ADME, organism-based; conditions: in vivo
[6] = target: T2, C-C chemokine receptor type 1 (Homo sapiens, UniProt P32246); assay: Antagonist activity at CCR1; assay type: functional
T2 sequence (P32246 whole entry): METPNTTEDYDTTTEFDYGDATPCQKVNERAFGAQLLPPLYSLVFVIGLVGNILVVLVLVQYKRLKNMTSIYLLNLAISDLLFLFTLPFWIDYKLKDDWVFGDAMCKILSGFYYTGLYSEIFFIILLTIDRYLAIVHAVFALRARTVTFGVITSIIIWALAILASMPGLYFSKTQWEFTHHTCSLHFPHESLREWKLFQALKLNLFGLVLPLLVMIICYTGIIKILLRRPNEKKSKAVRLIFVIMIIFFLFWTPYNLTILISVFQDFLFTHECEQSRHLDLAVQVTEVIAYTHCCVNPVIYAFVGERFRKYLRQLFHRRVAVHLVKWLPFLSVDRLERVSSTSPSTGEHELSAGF

physchem = conditions: octanol/water
Description: Lipophilicity, log P of the compound

[7] = target: T3, Muscarinic acetylcholine receptor M2 (Homo sapiens, UniProt P08172)
T3 sequence (P08172 whole entry): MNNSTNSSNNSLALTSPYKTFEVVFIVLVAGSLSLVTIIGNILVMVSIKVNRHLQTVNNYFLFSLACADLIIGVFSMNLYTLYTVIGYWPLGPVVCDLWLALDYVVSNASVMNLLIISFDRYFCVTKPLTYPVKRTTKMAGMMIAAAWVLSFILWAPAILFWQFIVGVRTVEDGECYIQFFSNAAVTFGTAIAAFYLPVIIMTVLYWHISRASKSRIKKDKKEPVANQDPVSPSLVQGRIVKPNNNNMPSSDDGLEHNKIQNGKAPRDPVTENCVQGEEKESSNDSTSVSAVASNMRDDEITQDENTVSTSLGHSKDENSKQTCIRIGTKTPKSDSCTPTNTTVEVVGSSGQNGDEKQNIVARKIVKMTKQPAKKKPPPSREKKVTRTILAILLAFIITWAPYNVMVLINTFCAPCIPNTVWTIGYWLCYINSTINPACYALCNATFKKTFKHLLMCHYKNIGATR
Description: Binding affinity to muscarinic M2 receptor

[8] = target: C-C chemokine receptor type 5 (Homo sapiens, UniProt P51681)
[9] = target: T2, C-C chemokine receptor type 1
[10] = Oral bioavailability in dog; assay type: ADME, organism-based, Canis lupus familiaris; conditions: in vivo
Cavia porcellus = species: Cavia porcellus; assay: Inhibition of CCL3-induced immune cell recruitment in guinea pig sensitization model; assay type: functional, organism-based
[11] = target: C-C chemokine receptor type 2 (Homo sapiens, UniProt P41597)
[12] = target: T4, C-C chemokine receptor type 3 (Homo sapiens, UniProt P51677)
T4 sequence (P51677 whole entry): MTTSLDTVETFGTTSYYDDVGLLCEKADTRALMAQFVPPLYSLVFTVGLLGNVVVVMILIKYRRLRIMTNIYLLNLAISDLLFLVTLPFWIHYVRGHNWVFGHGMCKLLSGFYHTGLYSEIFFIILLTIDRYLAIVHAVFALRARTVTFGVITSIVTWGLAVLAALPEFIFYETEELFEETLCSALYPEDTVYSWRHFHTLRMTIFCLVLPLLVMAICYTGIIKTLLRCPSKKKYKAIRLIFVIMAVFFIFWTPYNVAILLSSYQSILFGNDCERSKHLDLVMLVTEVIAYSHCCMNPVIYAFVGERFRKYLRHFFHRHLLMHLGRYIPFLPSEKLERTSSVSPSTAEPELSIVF

[13] = Half life in dog; assay type: ADME, organism-based, Canis lupus familiaris; conditions: in vivo
[14] = Binding affinity to rat CCR1 by radioligand binding assay
[15] = Half life in human; assay type: ADME, organism-based; conditions: in vivo

Chain of C-C chemokine receptor type 5 (P51681 whole entry): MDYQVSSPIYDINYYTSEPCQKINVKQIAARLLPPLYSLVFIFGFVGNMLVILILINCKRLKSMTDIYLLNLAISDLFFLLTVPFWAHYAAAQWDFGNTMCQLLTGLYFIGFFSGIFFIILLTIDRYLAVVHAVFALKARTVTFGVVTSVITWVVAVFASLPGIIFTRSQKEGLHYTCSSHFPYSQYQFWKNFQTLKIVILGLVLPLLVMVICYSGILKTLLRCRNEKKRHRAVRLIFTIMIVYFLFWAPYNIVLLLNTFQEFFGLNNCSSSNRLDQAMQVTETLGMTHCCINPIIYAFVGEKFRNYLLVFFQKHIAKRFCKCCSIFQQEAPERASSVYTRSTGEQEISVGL
Chain of C-C chemokine receptor type 2 (P41597 whole entry): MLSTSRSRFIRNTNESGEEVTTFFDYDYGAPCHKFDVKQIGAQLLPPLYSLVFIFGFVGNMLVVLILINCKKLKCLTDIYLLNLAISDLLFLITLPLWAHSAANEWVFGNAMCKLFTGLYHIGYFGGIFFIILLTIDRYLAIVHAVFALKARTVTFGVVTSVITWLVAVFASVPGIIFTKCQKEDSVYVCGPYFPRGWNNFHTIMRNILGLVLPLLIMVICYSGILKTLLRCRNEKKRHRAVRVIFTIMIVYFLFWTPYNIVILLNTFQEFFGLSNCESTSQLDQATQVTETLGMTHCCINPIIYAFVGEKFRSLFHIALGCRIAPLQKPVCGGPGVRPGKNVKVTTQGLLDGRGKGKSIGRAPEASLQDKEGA

SMILES: COc1cccc2c1c(NS(=O)(=O)c1ccc(Cl)s1)nn2Cc1cccc(NC(=O)CO)c1 [GSK-2239633]
Ki [1]: 10 nM
bioavailability [2]: 97%
half-life [3]: 2.5 h
half-life [4]: 2.6 h
bioavailability [5]: 85%

SMILES: CO[C@@H]1COCC[C@@H]1NC1CC[C@@](C(=O)N2CCc3ncc(C(F)(F)F)cc3C2)(C(C)C)C1 (stereo partly specified)
IC50 [6]: 5 nM

SMILES: C[C@@H]1CN(Cc2ccc(F)cc2)CCN1C(=O)COc1ccc(Cl)cc1NC(N)=O [BX 471 FREE BASE]
Kd [14]: 121 nM
half-life [15]: 2.3 h

Further lines, with some results ahead:

logP (physchem): 5.1
Ki [7]: 1.3 nM
Ki [8]: 1 nM
half-life [3]: 3 h
Ki [9]: 2.3 nM
bioavailability [5]: 35%
bioavailability [10]: 100%
SMILES: CC1(C)CN(CC/C=C2/c3cc(C(=O)O)ccc3OCc3ncccc32)C[C@H](c2ccc(Cl)cc2)[C@H]1O
EC50 (Cavia porcellus): 0.03 mg/kg

IC50 [11]: 5 nM
SMILES: Cc1cnc(C(=O)c2ncnc3[nH]ccc23)c(NS(=O)(=O)c2ccc(Cl)c(C(F)(F)F)c2)c1 [ILACIRNON]

logP (physchem): 2.2
IC50 [12]: 10 nM
half-life [13]: 2.8 h
bioavailability [10]: 89%
SMILES: NC(=O)c1ccc(CNC(=O)NC[C@@H]2CN(Cc3ccc(Cl)c(Cl)c3)CCO2)cc1
